Test results reported in patent publication US20160009693A1, “HERBICIDAL COMPOUNDS” (SYNGENTA LIMITED, priority 2013, published 2016).

Tests used:
Format in all cases: in vivo
Details in all cases: applied at 1000 g/h, evaluated after 13 days
[1] = test system: Alopecurus myosuroides (ALOMY); test: Herbicidal glasshouse test, pre-emergence, ALOMY
Setaria faberi (SETFA) [2] = test: Herbicidal glasshouse test, pre-emergence, SETFA
[3] = test system: Echinochloa crus-galli (ECHCG); test: Herbicidal glasshouse test, pre-emergence, ECHCG
Summary of the method: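 Echinochloa crus-galli seeds were sown in standard soil in pots and grown for one day in a glasshouse at 24/16° C. day/night, 14 hours light and 65% humidity. Pre-emergence spraying used an aqueous solution of the active ingredient in acetone/water (50:50) with 0.5% Tween 20. Damage was scored after 13 days on a five point scale.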

Solanum nigrum (SOLNI) [4] = test: Herbicidal glasshouse test, pre-emergence, SOLNI
Summary of the method: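 Seeds of Solanum nigrum were sown in pots of standard soil and kept one day in a glasshouse at 24/16° C. day/night, 14 hours light and 65% humidity. For the pre-emergence treatment they were then sprayed with an aqueous solution of the active ingredient formulated in acetone/water (50:50) containing 0.5% Tween 20. Plant damage was rated after 13 days.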

[5] = test system: Amaranthus retoflexus (AMARE); test: Herbicidal glasshouse test, pre-emergence, AMARE
Summary of the method: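 Amaranthus retoflexus seeds were sown in pots of standard soil and kept one day in a glasshouse at 24/16° C. (day/night), 14 hours light and 65% humidity. They were then sprayed pre-emergence with the active ingredient in acetone/water (50:50) containing 0.5% Tween 20. Plants grew under the same conditions, watered twice daily, and percentage damage was scored after 13 days.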

[6] = test system: Ipomoea hederacea (IPOHE); test: Herbicidal glasshouse test, pre-emergence, IPOHE
[7] = test system: Alopecurus myosuroides (ALOMY); test: Herbicidal glasshouse test, post-emergence, ALOMY
Setaria faberi (SETFA) [8] = test: Herbicidal glasshouse test, post-emergence, SETFA
Summary of the method: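 Setaria faberi seeds were sown in standard soil in pots and grown for 8 days in a glasshouse at 24/16° C. day/night, 14 hours light and 65% humidity. The seedlings were then sprayed post-emergence with the active ingredient in acetone/water (50:50) containing 0.5% Tween 20. Afterwards they were kept under the same conditions, watered twice daily, and scored for percentage damage on a five point scale.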

[9] = test system: Echinochloa crus-galli (ECHCG); test: Herbicidal glasshouse test, post-emergence, ECHCG
Summary of the method: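 Echinochloa crus-galli (ECHCG) seeds were sown in standard soil in pots and grown for 8 days in a glasshouse at 24/16° C. day/night, 14 hours light and 65% humidity. The young plants were then sprayed post-emergence with the active ingredient in acetone / water (50:50) containing 0.5% Tween 20. Damage was scored after 13 days.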

Solanum nigrum (SOLNI) [10] = test: Herbicidal glasshouse test, post-emergence, SOLNI
[11] = test system: Amaranthus retoflexus (AMARE); test: Herbicidal glasshouse test, post-emergence, AMARE
Summary of the method: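 Amaranthus retoflexus (AMARE) seeds were sown in pots of standard soil and grown in a glasshouse at 24/16° C. day/night, 14 hours light and 65% humidity for 8 days. The plants were then sprayed post-emergence with an aqueous solution of the active ingredient in acetone/water (50:50) with 0.5% Tween 20. Damage was scored after 13 days.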

[12] = test system: Ipomoea hederacea (IPOHE); test: Herbicidal glasshouse test, post-emergence, IPOHE

Structure (SMILES)	PRE Application ALOMY, percentage damage (five point scale) [1]	PRE Application SETFA, percentage damage (five point scale) (Setaria faberi (SETFA) [2])	PRE Application ECHCG, percentage damage (five point scale) [3]	PRE Application SOLNI, percentage damage (five point scale) (Solanum nigrum (SOLNI) [4])	PRE Application AMARE, percentage damage (five point scale) [5]	PRE Application IPOHE, percentage damage (five point scale) [6]	POST Application ALOMY, percentage damage (five point scale) [7]	POST Application SETFA, percentage damage (five point scale) (Setaria faberi (SETFA) [8])	POST Application ECHCG, percentage damage (five point scale) [9]	POST Application SOLNI, percentage damage (five point scale) (Solanum nigrum (SOLNI) [10])	POST Application AMARE, percentage damage (five point scale) [11]	POST Application IPOHE, percentage damage (five point scale) [12]
Cc1cccc(Cn2c(=O)c(C(=O)Nc3nnnn3C)nn(C)c2=O)c1 [Compound 1.052]	5 (5=80-100%)	1 (1=0-19%)	5 (5=80-100%)	5 (5=80-100%)	5 (5=80-100%)	2 (2=20-39%)	5 (5=80-100%)	1 (1=0-19%)	5 (5=80-100%)	5 (5=80-100%)	5 (5=80-100%)	5 (5=80-100%)
Cc1cccc(-n2c(=O)c(C(=O)Nc3nnnn3C)nn(C)c2=O)c1 [Compound 1.053]	5 (5=80-100%)	3 (3=40-59%)	5 (5=80-100%)	5 (5=80-100%)	5 (5=80-100%)	5 (5=80-100%)	5 (5=80-100%)	3 (3=40-59%)	4 (4=60-79%)	5 (5=80-100%)	5 (5=80-100%)	5 (5=80-100%)
Cn1nnnc1NC(=O)c1nn(C)c(=O)n(Cc2cccc(C#N)c2)c1=O [Compound 1.054]	5 (5=80-100%)	4 (4=60-79%)	5 (5=80-100%)	5 (5=80-100%)	5 (5=80-100%)	5 (5=80-100%)	5 (5=80-100%)	4 (4=60-79%)	5 (5=80-100%)	5 (5=80-100%)	5 (5=80-100%)	5 (5=80-100%)
Cn1nnnc1NC(=O)c1nn(C)c(=O)n(Cc2ccc(F)cc2F)c1=O [Compound 1.055]	5 (5=80-100%)	1 (1=0-19%)	5 (5=80-100%)	5 (5=80-100%)	5 (5=80-100%)	5 (5=80-100%)	5 (5=80-100%)	1 (1=0-19%)	4 (4=60-79%)	5 (5=80-100%)	5 (5=80-100%)	5 (5=80-100%)
Cn1nnnc1NC(=O)c1nn(C)c(=O)n(Cc2c(F)cc(F)cc2F)c1=O [Compound 1.056]	5 (5=80-100%)	1 (1=0-19%)	5 (5=80-100%)	5 (5=80-100%)	5 (5=80-100%)	5 (5=80-100%)	5 (5=80-100%)	4 (4=60-79%)	4 (4=60-79%)	5 (5=80-100%)	5 (5=80-100%)	5 (5=80-100%)
Cn1nnnc1NC(=O)c1nn(C)c(=O)n(Cc2ccc(C(F)(F)F)cc2)c1=O [Compound 1.057]	5 (5=80-100%)	1 (1=0-19%)	5 (5=80-100%)	3 (3=40-59%)	5 (5=80-100%)	4 (4=60-79%)	5 (5=80-100%)	1 (1=0-19%)	4 (4=60-79%)	5 (5=80-100%)	5 (5=80-100%)	5 (5=80-100%)
Cn1nnnc1NC(=O)c1nn(C)c(=O)n(Cc2ccccc2F)c1=O [Compound 1.058]	5 (5=80-100%)	5 (5=80-100%)	5 (5=80-100%)	5 (5=80-100%)	5 (5=80-100%)	5 (5=80-100%)	5 (5=80-100%)	5 (5=80-100%)	5 (5=80-100%)	5 (5=80-100%)	5 (5=80-100%)	5 (5=80-100%)
Cn1nnnc1NC(=O)c1nn(C)c(=O)n(Cc2ccccc2Cl)c1=O [Compound 1.059]	5 (5=80-100%)	2 (2=20-39%)	5 (5=80-100%)	5 (5=80-100%)	5 (5=80-100%)	5 (5=80-100%)	5 (5=80-100%)	4 (4=60-79%)	4 (4=60-79%)	5 (5=80-100%)	5 (5=80-100%)	5 (5=80-100%)
Cn1nnnc1NC(=O)c1nn(C)c(=O)n(Cc2ccccc2[N+](=O)[O-])c1=O [Compound 1.060]	5 (5=80-100%)	5 (5=80-100%)	5 (5=80-100%)	5 (5=80-100%)	5 (5=80-100%)	5 (5=80-100%)	5 (5=80-100%)	5 (5=80-100%)	5 (5=80-100%)	5 (5=80-100%)	5 (5=80-100%)	5 (5=80-100%)
Cn1nnnc1NC(=O)c1nn(C)c(=O)n(Cc2cc(F)ccc2F)c1=O [Compound 1.061]	5 (5=80-100%)	5 (5=80-100%)	5 (5=80-100%)	5 (5=80-100%)	5 (5=80-100%)	5 (5=80-100%)	5 (5=80-100%)	5 (5=80-100%)	5 (5=80-100%)	5 (5=80-100%)	5 (5=80-100%)	5 (5=80-100%)
